Source: PMC8198190, “The PFKFB3 Inhibitor AZ67 Inhibits Angiogenesis Independently of Glycolysis Inhibition” (International Journal of Molecular Sciences, 2021)

Target: T1, PFKFB3 (6-phosphofructo-2-kinase/fructose-2,6-bisphosphatase-3) (Homo sapiens, UniProt Q16875)
T1 construct: recombinant human PFKFB3 produced in E. coli
Assay: isothermal titration calorimetry (MicroCal Peaq-ITC, […] °C, triplicate)
Format: binding

T1 sequence (Q16875 whole entry): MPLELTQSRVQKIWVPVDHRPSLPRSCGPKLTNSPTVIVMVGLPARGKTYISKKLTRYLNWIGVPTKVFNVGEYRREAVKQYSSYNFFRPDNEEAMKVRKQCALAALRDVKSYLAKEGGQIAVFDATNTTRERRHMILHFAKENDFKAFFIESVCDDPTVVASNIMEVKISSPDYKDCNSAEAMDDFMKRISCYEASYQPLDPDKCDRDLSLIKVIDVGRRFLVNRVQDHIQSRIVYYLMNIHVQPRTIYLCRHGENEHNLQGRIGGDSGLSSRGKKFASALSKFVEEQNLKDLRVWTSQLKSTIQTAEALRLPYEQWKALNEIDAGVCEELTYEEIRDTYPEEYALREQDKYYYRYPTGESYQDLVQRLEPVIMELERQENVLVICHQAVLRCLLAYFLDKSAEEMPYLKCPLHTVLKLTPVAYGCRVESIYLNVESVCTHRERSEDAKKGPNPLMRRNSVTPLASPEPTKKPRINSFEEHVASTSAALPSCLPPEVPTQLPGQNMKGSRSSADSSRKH

Kd: 168 nM
SMILES: Cc1noc(C)c1Cn1cc(C#N)c2cc(Oc3ccc(NC(=O)[C@@H]4CCCN4)cc3)ccc21 [AZ67]
